# From US7323447B2, “Hepatitis C virus inhibitors” (Bristol-Myers Squibb Company, priority 2005, dated 2008)
# pIC50: −log10 of the molar value.
# Experiments:
# [1] = molecular target: T1, human neutrophil elastase (HNE) (Homo sapiens, UniProt P08246); experiment: Specificity assay, human neutrophil elastase; format: biochemical; details: read-out: HLE activity in the specificity assays (IC50)
# T1 construct: purchased Sigma or EMDbiosciences
# T1 sequence (P08246 30-267): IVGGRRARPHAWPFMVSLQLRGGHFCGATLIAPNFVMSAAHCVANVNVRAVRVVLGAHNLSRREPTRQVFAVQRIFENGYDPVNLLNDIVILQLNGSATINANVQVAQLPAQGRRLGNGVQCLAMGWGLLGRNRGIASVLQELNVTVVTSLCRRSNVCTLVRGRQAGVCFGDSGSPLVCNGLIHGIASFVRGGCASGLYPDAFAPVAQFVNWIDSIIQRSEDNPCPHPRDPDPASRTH
# Procedure: The specificities of compounds of the present disclosure were determined against a variety of serine proteases: human neutrophil elastase (HNE), porcine pancreatic elastase (PPE) and human pancreatic chymotrypsin and one cysteine protease: human liver cathepsin B. In all cases, a 96-well plate format protocol using colorimetric p-nitroaniline (pNA) substrate or fluorometric Amino-Methyl-Coumarin (AMC) substrate, specific for each enzyme was used as described previously (PCT Patent Application No. WO 00/09543) with some modifications. All enzymes were purchased from Sigma or EMDbiosciences while the substrates were from Bachem.
# Each pNA assay included a 2 hours enzyme-inhibitor pre-incubation at room temperature followed by addition of substrate and hydrolysis to ˜15% conversion as measured on a Spectramax Pro microplate reader. The cathepsin B assay was initiated by adding substrate to a 10 min enzyme-inhibitor pre-incubation at room temperature, and the assay plate measured immediately using the Cytofluor Series 4000. Compound concentrations varied from 100 to 0.4 μM depending on their potency. […]
# The percentage of inhibition was calculated using the formula: [1−((UVinh−UVblank)/(UVctl−UVblank))]×100 […]
# [2] = molecular target: T2, HCV NS3/4A protease complex (J4L6S strain) (Hepatitis C virus genotype 1b, UniProt O92972, C1454S/C1711G); experiment: FRET peptide assay to monitor HCV NS3/4A proteolytic activity, J4L6S strain; format: biochemical
# T2 construct: DNA encoding the recombinant HCV NS3/4A protease complex (amino acids 1027 to 1711) for these strains; inferred from pET21b vector and Ni-NTA purification; made in house; host or cells: Escherichia coli BL21 (DE3), pET21b
# T2 sequence (O92972 1027-1711 C1454S/C1711G, one chain of several): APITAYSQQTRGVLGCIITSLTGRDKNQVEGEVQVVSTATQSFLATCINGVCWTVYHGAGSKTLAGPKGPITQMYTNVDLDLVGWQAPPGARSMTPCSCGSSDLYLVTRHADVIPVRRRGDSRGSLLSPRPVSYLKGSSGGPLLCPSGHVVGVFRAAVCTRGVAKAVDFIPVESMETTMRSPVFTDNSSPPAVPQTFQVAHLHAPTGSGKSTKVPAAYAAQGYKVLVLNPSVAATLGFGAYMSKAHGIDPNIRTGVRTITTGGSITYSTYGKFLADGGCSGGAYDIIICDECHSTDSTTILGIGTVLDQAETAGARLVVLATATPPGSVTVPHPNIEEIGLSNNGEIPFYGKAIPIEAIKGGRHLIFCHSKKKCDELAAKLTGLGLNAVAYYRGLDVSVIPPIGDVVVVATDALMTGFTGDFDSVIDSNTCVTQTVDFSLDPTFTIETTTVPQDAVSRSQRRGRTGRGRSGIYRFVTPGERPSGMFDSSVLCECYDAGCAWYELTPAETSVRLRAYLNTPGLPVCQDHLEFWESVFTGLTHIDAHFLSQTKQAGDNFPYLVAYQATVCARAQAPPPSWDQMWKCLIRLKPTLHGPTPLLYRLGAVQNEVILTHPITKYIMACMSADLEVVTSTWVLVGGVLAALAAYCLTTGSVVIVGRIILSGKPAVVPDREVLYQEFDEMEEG
# Source text: HCV NS3 protease complexes, derived from the BMS strain, H77 strain or J4L6S strain, were generated, as described below. These purified recombinant proteins were generated for use in a homogeneous assay (see below) to provide an indication of how effective compounds of the present disclosure would be in inhibiting HCV NS3 proteolytic activity.
# The H77 and J4L6S strains were used for production of recombinant NS3/4A protease complexes. DNA encoding the recombinant HCV NS3/4A protease complex (amino acids 1027 to 1711) for these strains was manipulated as described by P. Gallinari et al. (see Gallinari P, Paolini C, Brennan D, Nardi C, Steinkuhler C, De Francesco R. Biochemistry. 38(17):5620-32, (1999)). Briefly, a three-lysine solubilizing tail was added at the 3′-end of the NS4A coding region. The cysteine in the P1 position of the NS4A-NS4B cleavage site (amino acid 1711) was changed to a glycine to avoid the proteolytic cleavage of the lysine tag. Furthermore, a cysteine to serine mutation was introduced by PCR at amino acid position 1454 to prevent the autolytic cleavage in the NS3 helicase domain. […]
smiles,measurement,setting,value
C=C[C@@H]1C[C@]1(NC(=O)[C@@H]1C[C@@H](OC(=O)N2Cc3cccc(F)c3C2)CN1C(=O)[C@@H](OC(=O)NC(C)(C)C)C(C)(C)C)C(=O)NS(=O)(=O)C1CC1 [Example 56Compound 56],pIC50,[1],< 4.00
same,pIC50,[2],8.01
